Laboratory results from the NIST ThermoML archive (doi:10.1021/je900387e).

Test: xn = mol fraction of the nth substance listed
Settings: Liquid, Pycnometric method

CCCCCl [1-chlorobutane] + O=C=O
mass density [kg/m3]
Settings	308.2 K	313.1 K
6210 kPa, x1 = 0.1488	843	–
6560 kPa, x1 = 0.0981	819	–
6560 kPa, x1 = 0.1488	848	–
6760 kPa, x1 = 0.1488	–	825
6790 kPa, x1 = 0.0981	825	–
6850 kPa, x1 = 0.1488	853	–
6910 kPa, x1 = 0.0744	786	–
6980 kPa, x1 = 0.0981	827	–
6980 kPa, x1 = 0.1488	–	828
7080 kPa, x1 = 0.0744	791	–
7130 kPa, x1 = 0.0981	–	791
7140 kPa, x1 = 0.0981	831	–
7240 kPa, x1 = 0.0483	742	–
7250 kPa, x1 = 0.1488	858	–
7310 kPa, x1 = 0.0981	–	795
7310 kPa, x1 = 0.1488	–	832
7320 kPa, x1 = 0.0981	834	–
7330 kPa, x1 = 0.0483	747	–
7430 kPa, x1 = 0.0483	752	–
7460 kPa, x1 = 0.0744	–	754
7470 kPa, x1 = 0.0744	801	–
7500 kPa, x1 = 0.0981	837	–
7530 kPa, x1 = 0.0483	757	–
7570 kPa, x1 = 0.0981	–	802
7640 kPa, x1 = 0.0243	670	–
7640 kPa, x1 = 0.0744	–	759
7660 kPa, x1 = 0.0483	761	–
7670 kPa, x1 = 0.0243	674	–
7700 kPa, x1 = 0.0744	807	–
7710 kPa, x1 = 0.0243	678	–
7730 kPa, x1 = 0.0981	840	–
7740 kPa, x1 = 0.0243	682	–
7740 kPa, x1 = 0.1488	863	837
7770 kPa, x1 = 0.0744	–	764
7780 kPa, x1 = 0.0243	686	–
7790 kPa, x1 = 0.0483	766	–
7820 kPa, x1 = 0.0243	690	–
7860 kPa, x1 = 0.0243	694	–
7860 kPa, x1 = 0.0981	–	807
7890 kPa, x1 = 0.0483	–	693
7940 kPa, x1 = 0.0243	701	–
7940 kPa, x1 = 0.0483	770	697
7940 kPa, x1 = 0.0744	–	769
7940 kPa, x1 = 0.0981	843	–
7950 kPa, x1 = 0.0744	812	–
8000 kPa, x1 = 0.0483	–	701
8030 kPa, x1 = 0.0243	707	–
8070 kPa, x1 = 0.0744	814	–
8090 kPa, x1 = 0.0744	–	773
8100 kPa, x1 = 0.0483	–	707
8110 kPa, x1 = 0.0483	776	–
8120 kPa, x1 = 0.0243	713	–
8170 kPa, x1 = 0.0981	846	–
8180 kPa, x1 = 0.0981	–	813
8190 kPa, x1 = 0.1488	–	841
8210 kPa, x1 = 0.0483	–	713
8220 kPa, x1 = 0.0243	–	545
8230 kPa, x1 = 0.0243	720	549
8230 kPa, x1 = 0.0744	817	–
8250 kPa, x1 = 0.0243	–	555
8270 kPa, x1 = 0.0744	–	778
8280 kPa, x1 = 0.0243	–	563
8280 kPa, x1 = 0.0483	780	–
8290 kPa, x1 = 0.1488	868	–
8300 kPa, x1 = 0.0243	–	571
8330 kPa, x1 = 0.0243	–	580
8340 kPa, x1 = 0.0483	–	719
8350 kPa, x1 = 0.0243	727	–
8350 kPa, x1 = 0.0744	820	–
8360 kPa, x1 = 0.0243	–	588
8390 kPa, x1 = 0.0981	849	–
8400 kPa, x1 = 0.0243	–	597
8450 kPa, x1 = 0.0483	–	725
8470 kPa, x1 = 0.0243	–	610
8470 kPa, x1 = 0.0483	785	–
8470 kPa, x1 = 0.0744	–	782
8480 kPa, x1 = 0.0243	734	–
8500 kPa, x1 = 0.0744	822	–
8510 kPa, x1 = 0.0981	–	819
8550 kPa, x1 = 0.0243	–	623
8560 kPa, x1 = 0.0483	788	–
8570 kPa, x1 = 0.0243	738	–
8600 kPa, x1 = 0.0483	–	732
8630 kPa, x1 = 0.0981	852	–
8640 kPa, x1 = 0.0744	825	–
8650 kPa, x1 = 0.0243	–	637
8670 kPa, x1 = 0.0483	790	–
8680 kPa, x1 = 0.0744	–	787
8760 kPa, x1 = 0.0483	–	738
8770 kPa, x1 = 0.0243	–	651
8770 kPa, x1 = 0.0483	793	–
8800 kPa, x1 = 0.0243	748	–
8830 kPa, x1 = 0.0744	828	–
8840 kPa, x1 = 0.1488	873	–
8890 kPa, x1 = 0.0483	795	–
8890 kPa, x1 = 0.0981	–	825
8900 kPa, x1 = 0.0744	–	792
8900 kPa, x1 = 0.0981	856	–
8910 kPa, x1 = 0.0243	753	–
8910 kPa, x1 = 0.1488	–	849
8930 kPa, x1 = 0.0243	–	666
8940 kPa, x1 = 0.0483	–	745
8970 kPa, x1 = 0.0744	830	–
9000 kPa, x1 = 0.0483	798	–
9050 kPa, x1 = 0.0243	758	–
9120 kPa, x1 = 0.0483	800	–
9130 kPa, x1 = 0.0243	–	682
9150 kPa, x1 = 0.0483	–	751
9150 kPa, x1 = 0.0744	–	797
9160 kPa, x1 = 0.0744	833	–
9160 kPa, x1 = 0.0981	859	–
9190 kPa, x1 = 0.0243	763	–
9230 kPa, x1 = 0.0483	803	–
9260 kPa, x1 = 0.0981	–	830
9330 kPa, x1 = 0.0744	836	–
9350 kPa, x1 = 0.0483	805	–
9370 kPa, x1 = 0.0483	–	759
9390 kPa, x1 = 0.0243	–	698
9410 kPa, x1 = 0.0744	–	802
9450 kPa, x1 = 0.0981	862	–
9450 kPa, x1 = 0.1488	–	853
9480 kPa, x1 = 0.1488	878	–
9490 kPa, x1 = 0.0483	808	–
9530 kPa, x1 = 0.0744	838	–
9620 kPa, x1 = 0.0483	–	765
9640 kPa, x1 = 0.0483	811	–
9670 kPa, x1 = 0.0744	–	807
9700 kPa, x1 = 0.0744	841	–
9710 kPa, x1 = 0.0243	–	716
9720 kPa, x1 = 0.0981	–	837
9780 kPa, x1 = 0.0483	813	–
9780 kPa, x1 = 0.0981	865	–
9810 kPa, x1 = 0.0483	–	770
9910 kPa, x1 = 0.0483	815	–
9940 kPa, x1 = 0.0744	844	–
9960 kPa, x1 = 0.0744	–	812
10000 kPa, x1 = 0.0483	–	775
10020 kPa, x1 = 0.0243	–	729
10030 kPa, x1 = 0.0981	869	–
10110 kPa, x1 = 0.0744	846	–
10150 kPa, x1 = 0.1488	883	–
10190 kPa, x1 = 0.0981	–	843
10220 kPa, x1 = 0.0483	–	780
10270 kPa, x1 = 0.1488	–	860
10280 kPa, x1 = 0.0243	–	738
10290 kPa, x1 = 0.0744	–	817
10380 kPa, x1 = 0.0981	872	–
10460 kPa, x1 = 0.0483	–	785
10510 kPa, x1 = 0.0981	874	–
10550 kPa, x1 = 0.0243	–	748
10620 kPa, x1 = 0.0744	–	823
10680 kPa, x1 = 0.0483	–	790
10690 kPa, x1 = 0.0981	–	849
10700 kPa, x1 = 0.0243	–	753
10850 kPa, x1 = 0.0243	–	758
10850 kPa, x1 = 0.1488	888	–
10860 kPa, x1 = 0.1488	–	865
10950 kPa, x1 = 0.0483	–	795
11620 kPa, x1 = 0.1488	893	–
12430 kPa, x1 = 0.1488	898	–
13270 kPa, x1 = 0.1488	904	–
13660 kPa, x1 = 0.1488	906	–
14090 kPa, x1 = 0.1488	909	–
14420 kPa, x1 = 0.1488	911	–
14870 kPa, x1 = 0.1488	914	–
